Measurements published in PubChem BioAssay (NCI).
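48-hour exposure; five concentrations; linearly interpolated endpoints. The concentration for 50% growth inhibition is given as GI50. TGI denotes the concentration required for complete inhibition of growth.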

Columns and labels:
Experiment in all cases: NCI tumour cell line growth inhibition, 48 h
[1] = test system: KM12 colon
[2] = test system: SK-MEL-5 melanoma
[3] = test system: HCT-15 colon
[4] = test system: MDA-MB-231 breast
[5] = test system: COLO 205 colon
[6] = test system: NCI/ADR-RES ovarian
[7] = test system: UACC-62 melanoma
[8] = test system: T-47D breast
[9] = test system: UO-31 renal
[10] = test system: CCRF-CEM leukemia
[11] = test system: HT29 colon
[12] = test system: LOX IMVI melanoma
[13] = test system: MALME-3M melanoma
[14] = test system: DU-145 prostate
[15] = test system: ACHN renal
[16] = test system: SNB-75 CNS
[17] = test system: UACC-257 melanoma
[18] = test system: CAKI-1 renal
[19] = test system: SK-MEL-2 melanoma
[20] = test system: MCF7 breast
[21] = test system: A549 NSCLC
[22] = test system: SK-OV-3 ovarian
[23] = test system: HL-60(TB) leukemia
[24] = test system: SK-MEL-28 melanoma
[25] = test system: OVCAR-5 ovarian
[26] = test system: EKVX NSCLC
[27] = test system: NCI-H522 lung
[28] = test system: HS 578T breast
[29] = test system: OVCAR-4 ovarian
[30] = test system: M14 melanoma
[31] = test system: 786-0 renal
[32] = test system: OVCAR-8 ovarian
[33] = test system: NCI-H460 lung
[34] = test system: SR leukemia
[35] = test system: MDA-MB-435
[36] = test system: SN12C renal
[37] = test system: U251 CNS
[38] = test system: HCT-116 colon
[39] = test system: A498 renal
[40] = test system: NCI-H23 lung
[41] = test system: SF-539 CNS
[42] = test system: MOLT-4 leukemia
[43] = test system: PC-3 prostate
[44] = test system: HCC-2998 colon
[45] = test system: SF-295 CNS
[46] = test system: RXF 393 renal
[47] = test system: HOP-62 NSCLC
[48] = test system: SW-620 colon
[49] = test system: IGROV1 ovarian
[50] = test system: SF-268 CNS
[51] = test system: NCI-H226 lung
[52] = test system: K-562 leukemia
[53] = test system: RPMI-8226 leukemia
[54] = test system: TK-10 renal
[55] = test system: SNB-19 CNS
[56] = test system: BT-549 breast
[57] = test system: OVCAR-3 ovarian
[58] = test system: HOP-92 NSCLC

For `CCOC(=O)/C(=C\n1c(=O)sc2ccccc21)C(=O)c1ccccc1`, the TGI [1] was > 100 µM, the TGI [2] was > 100 µM and the TGI [3] was > 100 µM. The TGI [4] was > 100 µM, the TGI [5] was > 100 µM and the TGI [6] was > 100 µM. The TGI [7] was > 100 µM, the TGI [8] was > 100 µM and the TGI [9] was > 100 µM. The TGI [10] was > 100 µM, the TGI [11] was > 100 µM and the TGI [12] was > 100 µM. For the same molecule, the TGI [13] was > 100 µM, the TGI [14] was > 100 µM and the TGI [15] was > 100 µM. The TGI [16] was > 100 µM, the TGI [17] was > 100 µM and the TGI [18] was 64.7 µM. For the same molecule, the TGI [19] was > 100 µM, the TGI [20] was > 100 µM and the TGI [21] was > 100 µM. For the same molecule, the TGI [22] was > 100 µM, the TGI [23] was > 100 µM and the TGI [24] was > 100 µM. For the same molecule, the TGI [25] was > 100 µM, the TGI [26] was > 100 µM and the TGI [27] was > 100 µM. For the same molecule, the TGI [28] was > 100 µM, the TGI [29] was > 100 µM and the TGI [30] was > 100 µM. The TGI [31] was > 100 µM, the TGI [32] was > 100 µM and the TGI [33] was > 100 µM. For the same molecule, the TGI [34] was > 100 µM, the TGI [35] was > 100 µM and the TGI [36] was > 100 µM. The TGI [37] was > 100 µM, the TGI [38] was > 100 µM and the TGI [39] was > 100 µM. The TGI [40] was > 100 µM, the TGI [41] was > 100 µM and the TGI [42] was > 100 µM. For the same molecule, the TGI [43] was > 100 µM, the TGI [44] was > 100 µM and the TGI [45] was > 100 µM. The TGI [46] was > 100 µM, the TGI [47] was > 100 µM and the TGI [48] was > 100 µM. The TGI [49] was > 100 µM, the TGI [50] was > 100 µM and the TGI [51] was > 100 µM. The TGI [52] was > 100 µM and the TGI [53] was > 100 µM.

`Nc1ccccc1SC(CC(=O)c1ccccc1)c1c(Cl)cccc1Cl` (stereo unspecified) gave a GI50 [1] of 2.26 µM, a TGI [1] of 5.4 µM and a GI50 [2] of 9.17 µM. For the same molecule, the TGI [2] was 21.2 µM, the GI50 [3] was 2.08 µM and the TGI [3] was 5.92 µM. For the same molecule, the GI50 [4] was 3.86 µM, the TGI [4] was 20.4 µM and the GI50 [54] was 4.71 µM. For the same molecule, the TGI [54] was 13.3 µM, the GI50 [5] was 10.9 µM and the TGI [5] was 29.9 µM. The GI50 [6] was 3.72 µM, the TGI [6] was 28.5 µM and the GI50 [8] was 2.81 µM. For the same molecule, the TGI [8] was 13.4 µM, the GI50 [9] was 1.27 µM and the TGI [9] was 4.64 µM. It also gave a GI50 [10] of 2.67 µM, a TGI [10] of 8.49 µM and a GI50 [11] of 2.29 µM. For the same molecule, the TGI [11] was 5.03 µM, the GI50 [12] was 1.59 µM and the TGI [12] was 3.2 µM. The GI50 [55] was 10.5 µM, the TGI [55] was 22.9 µM and the GI50 [13] was 10.8 µM. For the same molecule, the TGI [13] was 25.3 µM, the GI50 [14] was 5.8 µM and the TGI [14] was 18.3 µM. The GI50 [15] was 2.16 µM, the TGI [15] was 5.6 µM and the GI50 [16] was 10.8 µM. The TGI [16] was 30.1 µM, the GI50 [17] was 14.6 µM and the TGI [17] was 28.6 µM. For the same molecule, the GI50 [18] was 4.9 µM, the TGI [18] was 39.9 µM and the GI50 [19] was 6.33 µM. It also gave a TGI [19] of 18.2 µM, a GI50 [20] of 1.25 µM and a TGI [20] of 13.1 µM. The GI50 [21] was 21.8 µM, the TGI [21] was 58.1 µM and the GI50 [22] was 12.1 µM. The TGI [22] was 28.8 µM, the GI50 [23] was 3.36 µM and the TGI [23] was 11.7 µM. It also gave a GI50 [24] of 11.6 µM, a TGI [24] of 23.9 µM and a GI50 [25] of 4.29 µM. It also gave a TGI [25] of 15.7 µM, a GI50 [56] of 3.46 µM and a TGI [56] of 13.3 µM. It also gave a GI50 [27] of 3.86 µM, a TGI [27] of 12.6 µM and a GI50 [28] of 4.48 µM. The TGI [28] was 49.5 µM, the GI50 [29] was 4.84 µM and the TGI [29] was 18.4 µM. For the same molecule, the GI50 [30] was 3.25 µM, the TGI [30] was 12.9 µM and the GI50 [31] was 9.73 µM. For the same molecule, the TGI [31] was 23.2 µM, the GI50 [32] was 2.63 µM and the TGI [32] was 9.61 µM. The GI50 [33] was 4.59 µM, the TGI [33] was 17.6 µM and the GI50 [34] was 1.45 µM. For the same molecule, the TGI [34] was 5.79 µM, the GI50 [35] was 2.87 µM and the TGI [35] was 10.7 µM. For the same molecule, the GI50 [57] was 3.4 µM, the TGI [57] was 12 µM and the GI50 [36] was 2.94 µM. For the same molecule, the TGI [36] was 11.5 µM, the GI50 [37] was 4.24 µM and the TGI [37] was 15.3 µM. It also gave a GI50 [38] of 1.81 µM, a TGI [38] of 4.56 µM and a GI50 [58] of 6.11 µM. For the same molecule, the TGI [58] was 21.5 µM, the GI50 [39] was 11.2 µM and the TGI [39] was 24 µM. It also gave a GI50 [41] of 6.17 µM, a TGI [41] of 20.5 µM and a GI50 [42] of 3 µM. The TGI [42] was 7.79 µM, the GI50 [44] was 2.61 µM and the TGI [44] was 5.73 µM. For the same molecule, the GI50 [45] was 5.59 µM, the TGI [45] was 19.1 µM and the GI50 [46] was 4.23 µM. The TGI [46] was 17.4 µM, the GI50 [47] was 6.82 µM and the TGI [47] was 27.7 µM. It also gave a GI50 [48] of 2.28 µM, a TGI [48] of 5.21 µM and a GI50 [49] of 2.74 µM. It also gave a TGI [49] of 8.62 µM, a GI50 [50] of 3.43 µM and a TGI [50] of 13.4 µM. For the same molecule, the GI50 [51] was 14.9 µM, the TGI [51] was 40.6 µM and the GI50 [52] was 2.76 µM. It also gave a TGI [52] of 7.69 µM, a GI50 [53] of 1.9 µM and a TGI [53] of 5.35 µM.
